Values quoted from earlier work in US20250333422A1, “AMORPHOUS BERBERINE WITH ENHANCED BIOAVAILABILITY” (Nature's Way Products, LLC, priority 2024, published 2025).
Counter-ions that a name gives are not always drawn.

Key:
[1] = berberine metabolites
[2] = not given; remark: listed apart in the source

| SMILES | biological activities for antioxidative, hepatoprotective, and hypolipidemic effects [1] | further results |
| --- | --- | --- |
| COc1ccc2cc3[n+](cc2c1OC)CCc1cc2c(cc1-3)OCO2 [Berberine, Berberine HCl] |  | share of dose that goes into the lower bowel unabsorbed (oral dose): 99%; bioavailability (standard crystalline berberine, oral): < 1% |
| COc1ccc2cc3[n+](cc2c1O)CCc1cc2c(cc1-3)OCO2 [berberrubine] | showed biological activities |  |
| COc1ccc2cc3[n+](cc2c1OC)CCc1cc(O)c(O)cc1-3 [demethyleneberberine] | showed biological activities |  |
| COc1ccc2c(c1OC)CN1CCc3cc4c(cc3C1=C2)OCO4 [dhBB, dihydroberberine] |  | bioavailability of berberine versus an oral dosage of standard berberine [2]: 5 times |
| COc1cc2c(cc1O)CC[n+]1cc3c(OC)c(OC)ccc3cc1-2 [jatrorrhizine] | showed biological activities |  |
| COc1c(O)ccc2cc3[n+](cc12)CCc1cc2c(cc1-3)OCO2 [thalifendine] | showed biological activities |  |
